Measurements from ChEMBL document CHEMBL1201862, “PubChem BioAssay data set” (2004).
Active and inactive are the calls of the source.

Experiments:
[1] = target: Arf-GAP with SH3 domain, ANK repeat and PH domain-containing protein 1 (Homo sapiens, UniProt Q9ULH1); format: functional;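 also: biochemical fluorescence polarization dose–response screen measuring inhibition of ASAP1; ASAP1 GAP domain stimulating GTP hydrolysis by truncated human ARF1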
[2] = target: ADP-ribosylation factor GTPase-activating protein 1 (Rattus norvegicus, UniProt Q62848); assay: Fluorescence polarization-based biochemical high throughput dose response screening assay to identify inhibitors of ADP-ribosylation factor GTPase activating protein 1 (ARFGAP1).; format: functional
Chain of ADP-ribosylation factor GTPase-activating protein 1 (Q62848 whole entry): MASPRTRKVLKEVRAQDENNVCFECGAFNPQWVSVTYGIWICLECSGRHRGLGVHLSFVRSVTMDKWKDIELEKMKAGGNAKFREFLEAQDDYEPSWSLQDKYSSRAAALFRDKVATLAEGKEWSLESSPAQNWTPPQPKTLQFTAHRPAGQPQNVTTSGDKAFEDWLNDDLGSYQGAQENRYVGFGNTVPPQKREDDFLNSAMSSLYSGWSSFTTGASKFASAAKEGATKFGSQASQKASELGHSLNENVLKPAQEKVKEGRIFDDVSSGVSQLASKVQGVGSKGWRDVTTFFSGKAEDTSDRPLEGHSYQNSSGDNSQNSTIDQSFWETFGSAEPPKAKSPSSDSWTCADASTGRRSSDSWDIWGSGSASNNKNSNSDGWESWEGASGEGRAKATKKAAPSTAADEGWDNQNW

[3] = target: T1, Scavenger receptor class B member 1 (Mus musculus, UniProt Q61009); assay: mouse SR-BI DiI-HDL uptake blockers – ldlA[mSR-BI] cells, fluorescence, cherry pick, dose response (AID 493194); format: functional, cell-based;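 also: cellular uptake of fluorescent DiI-labeled HDL measured as cell fluorescence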
T1 sequence (Q61009 whole entry): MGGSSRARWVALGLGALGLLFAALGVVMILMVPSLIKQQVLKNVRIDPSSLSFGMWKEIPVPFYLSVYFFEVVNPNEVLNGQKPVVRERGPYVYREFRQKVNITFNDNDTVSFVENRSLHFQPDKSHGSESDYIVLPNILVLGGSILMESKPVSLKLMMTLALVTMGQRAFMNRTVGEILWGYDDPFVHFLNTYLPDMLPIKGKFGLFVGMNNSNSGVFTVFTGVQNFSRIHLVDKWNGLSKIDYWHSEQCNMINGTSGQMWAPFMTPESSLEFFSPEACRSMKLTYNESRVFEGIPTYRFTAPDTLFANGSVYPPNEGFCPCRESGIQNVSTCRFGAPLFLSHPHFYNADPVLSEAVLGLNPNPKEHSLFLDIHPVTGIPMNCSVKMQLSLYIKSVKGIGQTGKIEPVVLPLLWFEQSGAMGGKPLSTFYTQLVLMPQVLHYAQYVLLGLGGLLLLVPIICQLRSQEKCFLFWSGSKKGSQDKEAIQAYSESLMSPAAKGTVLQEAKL

[4] = target: Broad substrate specificity ATP-binding cassette transporter ABCG2 (Homo sapiens, UniProt Q9UNQ0); assay: blockers of JC-1 export by ABCG2 – Ig-MXP3 cells, flow cytometry, dose response (AID 1690); format: functional
Chain of Broad substrate specificity ATP-binding cassette transporter ABCG2 (Q9UNQ0 whole entry): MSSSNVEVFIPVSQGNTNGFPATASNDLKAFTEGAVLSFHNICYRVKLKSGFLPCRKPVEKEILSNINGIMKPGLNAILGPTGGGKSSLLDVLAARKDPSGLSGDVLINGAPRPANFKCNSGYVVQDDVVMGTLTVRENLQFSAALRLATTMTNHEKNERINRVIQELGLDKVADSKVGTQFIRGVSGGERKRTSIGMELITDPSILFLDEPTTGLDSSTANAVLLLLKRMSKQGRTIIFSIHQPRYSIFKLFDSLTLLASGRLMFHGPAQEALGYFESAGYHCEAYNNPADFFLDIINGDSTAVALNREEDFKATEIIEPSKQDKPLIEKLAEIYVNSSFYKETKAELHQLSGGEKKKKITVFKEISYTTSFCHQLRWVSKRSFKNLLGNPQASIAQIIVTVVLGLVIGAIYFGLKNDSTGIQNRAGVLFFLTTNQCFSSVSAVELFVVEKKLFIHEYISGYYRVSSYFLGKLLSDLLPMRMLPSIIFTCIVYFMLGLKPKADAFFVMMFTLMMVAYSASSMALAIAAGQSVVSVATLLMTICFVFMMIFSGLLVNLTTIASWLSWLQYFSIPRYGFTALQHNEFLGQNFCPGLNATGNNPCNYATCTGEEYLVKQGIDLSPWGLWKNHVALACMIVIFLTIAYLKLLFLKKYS

[5] = target: Long-chain-fatty-acid--AMP ligase FadD28 (Mycobacterium tuberculosis, UniProt P9WQ59); assay: Fluorescence polarization aasay to screen for inhibitors that compete for the binding of FadD28 to a bisubstrate Measured in Biochemical System Using Plate Reader - 2147-01_Inhibitor_Dose_CherryPick_Activity.; format: functional, Mycobacterium tuberculosis H37Rv
Chain of Long-chain-fatty-acid--AMP ligase FadD28 (P9WQ59 whole entry): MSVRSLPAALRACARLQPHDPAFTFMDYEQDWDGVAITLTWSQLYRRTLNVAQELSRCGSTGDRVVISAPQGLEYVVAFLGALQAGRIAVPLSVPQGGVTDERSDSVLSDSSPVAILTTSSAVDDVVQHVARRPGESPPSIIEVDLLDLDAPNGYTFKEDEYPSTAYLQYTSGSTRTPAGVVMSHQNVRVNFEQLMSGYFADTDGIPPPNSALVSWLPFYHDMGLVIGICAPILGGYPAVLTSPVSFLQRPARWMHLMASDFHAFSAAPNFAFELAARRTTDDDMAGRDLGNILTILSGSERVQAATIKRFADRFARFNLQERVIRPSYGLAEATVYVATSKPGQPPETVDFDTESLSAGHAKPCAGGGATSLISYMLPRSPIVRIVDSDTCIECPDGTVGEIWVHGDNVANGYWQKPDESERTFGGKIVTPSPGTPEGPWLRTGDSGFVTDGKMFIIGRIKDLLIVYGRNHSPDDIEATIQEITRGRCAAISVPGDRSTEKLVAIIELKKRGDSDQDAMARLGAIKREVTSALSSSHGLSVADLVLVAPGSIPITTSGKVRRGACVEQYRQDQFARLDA

[6] = target: SWI/SNF-related matrix-associated actin-dependent regulator of chromatin subfamily A member 2 (Homo sapiens, UniProt P51531); assay: Luminescence-based cell-based high throughput dose response assay to identify activators of the function of SWI/SNF related, matrix associated, actin dependent regulator of chromatin, subfamily a, member 2 (SMARCA2, BRM).; format: functional
[7] = target: T2, DNA repair and recombination protein RAD54-like (Homo sapiens, UniProt Q92698); assay: RAD54 Holliday junction migration blockers – biochemical, fluorescence, cherry-picked samples, dose series, confirmation (AID 651657); format: functional
T2 sequence (Q92698 whole entry): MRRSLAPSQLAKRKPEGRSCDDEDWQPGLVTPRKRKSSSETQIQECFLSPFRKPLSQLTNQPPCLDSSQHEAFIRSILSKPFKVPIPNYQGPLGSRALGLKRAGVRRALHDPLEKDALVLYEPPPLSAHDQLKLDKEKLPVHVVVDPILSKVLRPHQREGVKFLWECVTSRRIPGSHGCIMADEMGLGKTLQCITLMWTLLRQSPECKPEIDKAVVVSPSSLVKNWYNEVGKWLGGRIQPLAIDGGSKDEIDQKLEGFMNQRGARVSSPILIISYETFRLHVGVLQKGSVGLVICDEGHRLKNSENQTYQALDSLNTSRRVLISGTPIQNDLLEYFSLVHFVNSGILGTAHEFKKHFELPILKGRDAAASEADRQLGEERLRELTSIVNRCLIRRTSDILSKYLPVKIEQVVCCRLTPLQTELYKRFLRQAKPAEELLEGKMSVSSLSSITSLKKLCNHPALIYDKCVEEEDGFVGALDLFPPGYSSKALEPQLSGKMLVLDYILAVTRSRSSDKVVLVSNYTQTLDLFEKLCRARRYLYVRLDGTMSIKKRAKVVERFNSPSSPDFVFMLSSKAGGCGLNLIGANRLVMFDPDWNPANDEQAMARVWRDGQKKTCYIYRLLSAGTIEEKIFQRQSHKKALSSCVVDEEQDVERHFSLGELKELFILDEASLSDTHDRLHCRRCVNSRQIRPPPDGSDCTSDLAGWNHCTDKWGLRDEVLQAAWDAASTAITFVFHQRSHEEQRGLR

[8] = cytotoxicity toward MDA-MB-231 breast cancer cells – cell-based, CellTiter-Glo luminescence, cherry-pick, cytotoxicity control for RAD54 inhibitor project, dose response (AID 651692); format: functional
[9] = target: T3, DNA repair protein RAD52 homolog (Homo sapiens, UniProt P43351); format: functional, biochemical
T3 sequence (P43351 whole entry): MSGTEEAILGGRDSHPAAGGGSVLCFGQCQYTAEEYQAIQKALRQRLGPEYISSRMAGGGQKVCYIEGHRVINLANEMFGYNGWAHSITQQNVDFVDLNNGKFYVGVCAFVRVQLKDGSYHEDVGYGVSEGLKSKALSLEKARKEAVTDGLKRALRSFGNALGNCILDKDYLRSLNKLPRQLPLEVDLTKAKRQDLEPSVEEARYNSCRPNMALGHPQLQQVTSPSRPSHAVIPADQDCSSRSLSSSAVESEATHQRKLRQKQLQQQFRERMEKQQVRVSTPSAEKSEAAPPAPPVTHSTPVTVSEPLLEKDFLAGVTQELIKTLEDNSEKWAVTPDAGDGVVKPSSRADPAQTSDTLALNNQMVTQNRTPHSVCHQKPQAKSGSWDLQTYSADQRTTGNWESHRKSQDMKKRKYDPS

[10] = Counterscreen for activators of the function of SWI/SNF related, matrix associated, actin dependent regulator of chromatin, subfamily a, member 2 (SMARCA2, BRM): Luminescence-based cell-based high throughput dose response assay to identify non-selective compounds using the VP16 reporter assay.; format: functional
[11] = microbe, parasite or virus in culture; format: functional; settings: Mycobacterium tuberculosis
[12] = target: Matrix metalloproteinase-14 (Homo sapiens, UniProt P50281); assay: Dose Response confirmation of uHTS hits for a small molecule inhibitors of MT1-MMP activation in a fluorescence assay set 1.; format: functional
[13] = target: T4, RNA-binding protein pos-1 (Caenorhabditis elegans, UniProt G5EF15); assay: disruptors of C. elegans POS-1 RNA interaction – biochemical, fluorescence polarization, dose response (AID 1964);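 also: purified POS-1 fused to maltose binding protein made in E. coli; potency of compounds blocking POS-1 binding to fluorescent RNA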
T4 sequence (G5EF15 whole entry): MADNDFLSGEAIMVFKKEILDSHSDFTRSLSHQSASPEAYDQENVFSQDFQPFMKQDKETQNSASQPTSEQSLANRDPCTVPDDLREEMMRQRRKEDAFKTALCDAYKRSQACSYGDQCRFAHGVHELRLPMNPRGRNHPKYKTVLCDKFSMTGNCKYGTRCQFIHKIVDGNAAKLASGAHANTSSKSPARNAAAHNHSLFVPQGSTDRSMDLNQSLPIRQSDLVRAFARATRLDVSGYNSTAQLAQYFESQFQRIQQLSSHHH

Beta-lactamase [14] = target: Beta-lactamase (Salmonella choleraesuis (strain SC-B67), UniProt Q5J463)
Chain of Beta-lactamase (Salmonella choleraesuis (strain SC-B67), UniProt Q5J463) (Q5J463 whole entry): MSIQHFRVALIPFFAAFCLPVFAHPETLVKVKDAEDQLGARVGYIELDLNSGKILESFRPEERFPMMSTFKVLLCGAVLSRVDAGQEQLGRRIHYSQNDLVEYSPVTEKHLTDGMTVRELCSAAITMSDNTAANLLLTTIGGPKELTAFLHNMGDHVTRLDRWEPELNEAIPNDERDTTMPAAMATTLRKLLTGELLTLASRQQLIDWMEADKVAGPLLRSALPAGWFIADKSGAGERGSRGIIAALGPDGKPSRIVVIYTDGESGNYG

Beta-lactamase [15] = target: Beta-lactamase (Pseudomonas aeruginosa, UniProt Q79MP6);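 also: biochemical dose-response test of metallo-beta-lactamase enzyme inhibition, read out by epi-absorbance; purified recombinant IMP-1 metallo-beta-lactamase with nitrocefin as substrate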
Chain of Beta-lactamase (Pseudomonas aeruginosa, UniProt Q79MP6) (Q79MP6 whole entry): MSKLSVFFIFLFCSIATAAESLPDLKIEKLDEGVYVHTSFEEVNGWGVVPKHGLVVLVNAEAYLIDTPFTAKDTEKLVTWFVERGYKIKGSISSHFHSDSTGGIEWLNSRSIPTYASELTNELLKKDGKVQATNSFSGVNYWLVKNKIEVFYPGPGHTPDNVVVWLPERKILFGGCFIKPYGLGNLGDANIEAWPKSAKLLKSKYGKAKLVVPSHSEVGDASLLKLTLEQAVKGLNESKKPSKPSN

[16] = target: T5, Zinc finger protein mex-5 (Caenorhabditis elegans, UniProt Q9XUB2); assay: potency of MEX-5 RNA-binding blockers – biochemical, C. elegans, fluorescence polarization, dose response (AID 1960)
T5 sequence (Q9XUB2 whole entry): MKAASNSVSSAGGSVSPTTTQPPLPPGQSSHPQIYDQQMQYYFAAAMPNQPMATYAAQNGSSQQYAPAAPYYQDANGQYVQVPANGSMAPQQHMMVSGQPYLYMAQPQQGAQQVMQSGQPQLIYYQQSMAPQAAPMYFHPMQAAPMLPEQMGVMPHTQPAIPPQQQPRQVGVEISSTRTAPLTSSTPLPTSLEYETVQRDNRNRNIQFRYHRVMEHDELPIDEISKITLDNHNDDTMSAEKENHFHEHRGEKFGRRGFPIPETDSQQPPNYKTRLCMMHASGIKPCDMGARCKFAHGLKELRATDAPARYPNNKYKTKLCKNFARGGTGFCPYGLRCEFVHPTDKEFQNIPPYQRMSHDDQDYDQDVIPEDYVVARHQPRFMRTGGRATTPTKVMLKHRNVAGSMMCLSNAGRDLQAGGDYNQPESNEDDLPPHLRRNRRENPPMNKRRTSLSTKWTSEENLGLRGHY

[17] = target: 5-hydroxytryptamine receptor 2A (Mus musculus, UniProt P35363); format: functional, cell-based;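 also: CHO-K1 cells with tagged receptor and beta-arrestin; agonist potency measured as compound-induced activation of the receptor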
Chain of 5-hydroxytryptamine receptor 2A (P35363 whole entry): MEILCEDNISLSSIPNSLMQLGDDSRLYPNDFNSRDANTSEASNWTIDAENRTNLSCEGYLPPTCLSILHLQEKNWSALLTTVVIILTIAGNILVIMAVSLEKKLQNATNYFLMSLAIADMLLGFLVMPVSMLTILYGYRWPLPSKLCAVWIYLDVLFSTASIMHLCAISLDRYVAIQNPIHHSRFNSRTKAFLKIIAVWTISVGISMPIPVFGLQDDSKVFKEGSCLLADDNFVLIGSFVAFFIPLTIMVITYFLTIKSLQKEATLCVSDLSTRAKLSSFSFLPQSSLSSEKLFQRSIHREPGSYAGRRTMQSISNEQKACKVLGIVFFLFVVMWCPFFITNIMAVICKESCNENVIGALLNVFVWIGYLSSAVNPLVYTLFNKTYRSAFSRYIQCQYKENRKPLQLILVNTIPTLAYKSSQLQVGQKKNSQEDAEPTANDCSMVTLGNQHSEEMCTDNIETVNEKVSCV

Mu-type opioid receptor = Mu-type opioid receptor (Homo sapiens, UniProt P35372); format: functional, cell-based;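 also: U2OS cells with beta-arrestin recruitment to OPRM1 by beta-gal complementation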
Chain of Mu-type opioid receptor (P35372 whole entry): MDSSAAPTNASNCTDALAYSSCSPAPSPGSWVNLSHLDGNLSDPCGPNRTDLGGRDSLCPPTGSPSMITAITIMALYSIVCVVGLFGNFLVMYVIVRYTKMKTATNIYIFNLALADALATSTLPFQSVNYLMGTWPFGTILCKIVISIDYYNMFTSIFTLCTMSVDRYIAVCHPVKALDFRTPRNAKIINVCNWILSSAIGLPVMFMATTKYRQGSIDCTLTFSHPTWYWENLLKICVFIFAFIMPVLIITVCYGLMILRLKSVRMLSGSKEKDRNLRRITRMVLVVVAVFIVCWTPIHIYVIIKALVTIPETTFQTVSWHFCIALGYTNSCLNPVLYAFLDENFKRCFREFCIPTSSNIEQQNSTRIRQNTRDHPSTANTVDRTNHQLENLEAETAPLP

cells [18] = format: functional, cell-based
[19] = target: Nuclear receptor subfamily 0 group B member 1 (Homo sapiens, UniProt P51843); format: functional, cell-based;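 also: HEK293T cells transfected with SF-1 and DAX-1 plus StAR promoter luciferase reporter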
Chain of Nuclear receptor subfamily 0 group B member 1 (P51843 whole entry): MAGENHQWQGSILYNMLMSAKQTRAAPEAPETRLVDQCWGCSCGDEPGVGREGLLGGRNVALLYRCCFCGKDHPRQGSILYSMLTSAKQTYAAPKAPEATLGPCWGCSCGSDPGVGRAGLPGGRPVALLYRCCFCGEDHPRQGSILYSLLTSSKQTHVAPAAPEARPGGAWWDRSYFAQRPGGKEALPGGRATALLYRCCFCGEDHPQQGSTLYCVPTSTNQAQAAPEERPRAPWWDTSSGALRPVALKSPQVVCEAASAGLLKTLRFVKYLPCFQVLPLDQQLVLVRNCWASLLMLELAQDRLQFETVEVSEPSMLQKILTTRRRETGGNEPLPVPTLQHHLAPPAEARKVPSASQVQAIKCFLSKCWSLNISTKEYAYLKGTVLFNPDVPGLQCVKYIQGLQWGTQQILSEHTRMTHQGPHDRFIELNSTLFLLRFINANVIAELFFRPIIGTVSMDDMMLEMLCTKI

HeLa = assay: viability loss in HeLa cells – cell-based, ATP luminescence, cherry-pick samples, cytotoxicity control, dose response (AID 687004); format: functional; settings: Homo sapiens
HEK293 = assay: viability loss in HEK293T cells – cell-based, ATP luminescence, cherry-pick samples, cytotoxicity control, dose response (AID 687005); format: functional; settings: Homo sapiens;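 also: cells exposed to compound for 48 hours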
[20] = HEK293 Cytotoxicity Assay Measured in Cell-Based System Using Plate Reader - 7071-01_Inhibitor_Dose_CherryPick_Activity_Set2.; format: functional
[21] = target: T1, Scavenger receptor class B member 1; assay: blockers of DiI-HDL lipid transfer via SR-BI – cell-based, ldlA[mSR-BI] CHO, DiI fluorescence, dry powder, set 10, dose response (AID 624029); format: functional
[22] = T. cruzi growth inhibition in host cells, dose response, cell-based, plate reader, dry powder, set 2 (AID 652275); format: functional
[23] = Late stage assay provider results from the probe development effort to identify inhibitors of the Plasmodium falciparum M17 Leucine Aminopeptidase (M17LAP): radiolabel-based cell-based dose response assay to identify compounds that inhibit P. falciparum growth in RBCs Set 2.; format: functional
cells [24] = format: functional
[25] = target: T6, Sentrin-specific protease 8 (Homo sapiens, UniProt Q96LD8); format: functional
T6 sequence (Q96LD8 whole entry): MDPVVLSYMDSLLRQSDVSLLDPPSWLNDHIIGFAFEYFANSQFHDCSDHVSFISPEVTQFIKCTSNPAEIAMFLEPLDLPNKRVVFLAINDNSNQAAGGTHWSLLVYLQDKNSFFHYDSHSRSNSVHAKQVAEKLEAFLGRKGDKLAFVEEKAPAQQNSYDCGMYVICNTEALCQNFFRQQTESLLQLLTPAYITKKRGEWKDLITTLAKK

[26] = target: T6, Sentrin-specific protease 8; format: functional; remark: listed apart in the source
[27] = THP-1 cell cytotoxicity, dose response, cytotoxicity control for non-replicating M. tuberculosis project (AID 489025); format: functional
[28] = Vero E6 cell cytotoxicity, dose response, cytotoxicity control for non-replicating M. tuberculosis project, secondary assay (AID 492998); format: functional, VeroE6; settings: Vero C1008
[29] = Trypanosoma cruzi growth suppression in host cells – NIH3T3 host cells, beta-gal luminescence, confirmation (AID 2044); format: functional, cell-based;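 also: intracellular parasites grown in NIH/3T3 mouse fibroblasts as host cells; luminescent beta-galactosidase reporter signal from transgenic T. cruzi replicating inside host cells; inhibitors lower the luminescence signal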
[30] = NIH3T3 cell viability loss – ATP luminescence, mouse fibroblasts, counter-screen, dose response (AID 2010); format: functional, cell-based;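 also: cells exposed to compound for about 90 hours before reading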
[31] = HepG2 cell cytotoxicity, dose response, cytotoxicity control for non-replicating M. tuberculosis project (AID 489018); format: functional; settings: Mycobacterium tuberculosis

Chain of Arf-GAP with SH3 domain, ANK repeat and PH domain-containing protein 1 (Q9ULH1 whole entry, the tested form may be a part): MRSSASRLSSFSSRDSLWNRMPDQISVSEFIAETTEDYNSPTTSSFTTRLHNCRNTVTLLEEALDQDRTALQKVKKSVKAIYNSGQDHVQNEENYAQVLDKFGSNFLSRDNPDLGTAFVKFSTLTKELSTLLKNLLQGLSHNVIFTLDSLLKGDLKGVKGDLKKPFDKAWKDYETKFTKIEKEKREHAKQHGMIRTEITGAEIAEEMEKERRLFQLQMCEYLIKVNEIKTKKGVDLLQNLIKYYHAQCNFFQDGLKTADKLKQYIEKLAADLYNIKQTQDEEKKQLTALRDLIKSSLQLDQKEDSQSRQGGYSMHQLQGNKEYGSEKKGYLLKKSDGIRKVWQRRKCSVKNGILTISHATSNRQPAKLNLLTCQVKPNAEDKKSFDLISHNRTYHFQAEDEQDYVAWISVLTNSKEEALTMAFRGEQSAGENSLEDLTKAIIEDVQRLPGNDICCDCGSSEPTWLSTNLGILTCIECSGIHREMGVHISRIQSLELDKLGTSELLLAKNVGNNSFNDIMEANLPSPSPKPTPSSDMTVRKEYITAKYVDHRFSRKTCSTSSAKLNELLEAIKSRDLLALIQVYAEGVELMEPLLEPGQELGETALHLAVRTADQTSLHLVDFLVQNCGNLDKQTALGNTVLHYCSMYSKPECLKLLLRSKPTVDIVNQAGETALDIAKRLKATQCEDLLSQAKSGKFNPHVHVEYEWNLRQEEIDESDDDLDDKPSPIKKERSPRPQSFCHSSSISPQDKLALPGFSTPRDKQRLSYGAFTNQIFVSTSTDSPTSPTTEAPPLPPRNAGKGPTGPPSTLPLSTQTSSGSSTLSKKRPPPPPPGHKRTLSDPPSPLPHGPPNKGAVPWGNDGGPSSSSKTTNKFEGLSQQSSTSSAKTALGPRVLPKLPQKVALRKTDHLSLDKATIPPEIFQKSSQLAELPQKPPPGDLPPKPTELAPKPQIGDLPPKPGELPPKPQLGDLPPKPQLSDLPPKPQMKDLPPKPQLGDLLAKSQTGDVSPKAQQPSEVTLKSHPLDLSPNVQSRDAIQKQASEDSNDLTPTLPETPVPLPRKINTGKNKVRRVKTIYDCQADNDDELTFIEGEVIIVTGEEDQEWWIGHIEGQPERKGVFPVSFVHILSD

COc1ccc([N+](=O)[O-])cc1NC(=O)c1ccc(Br)s1
IC50 [1]: 20.8 µM (inactive) | IC50 [2]: 35.6 µM (inactive)

Cc1c(C(=O)Nc2ccc(F)cc2)c2ccccn2c1CCc1ccncc1
AC50 [3]: 20.4 µM (active) | EC50 [4]: 6.84 µM (inactive)

O=[N+]([O-])c1ccc(CNc2ccc(Cl)cc2)s1
AC50 [5]: > 100 µM (inactive)

COc1cc(Nc2c3ccccc3nc3ccccc23)cc(OC)c1OC
EC50 [6]: > 91.2 µM (inactive) | AC50 [7]: 14.8 µM (active) | AC50 [8]: 29.2 µM (active) | AC50 [9]: 5.17 µM (active) | EC50 [10]: > 91.2 µM (inactive)

COc1ccc(-c2oc3ccc(-c4ccc(OC)nc4)cc3c2C#CC2(O)CCCCC2)cc1
CC50 [11]: > 40 µM (active) | IC50 [12]: 5.57 µM (active)

COc1ccc(/C=C2\CCCc3c2nc2ccccc2c3C(=O)O)cc1OC
EC50 [13]: 9.28 µM (active) | IC50 (Beta-lactamase [14]): 11.2 µM (inactive) | IC50 (Beta-lactamase [15]): > 59.6 µM (inactive) | EC50 [16]: 8.26 µM (inconclusive)

Cc1ccc(CN2CCN(C(=O)c3ccco3)CC2)cc1
EC50 [17]: 0.475 µM (active) | EC50 (Mu-type opioid receptor): 92.5 µM (inactive)

CC(=Nc1ccccc1)C1=C(O)C(Cc2cccc(F)c2)NC1=O (centres undefined)
IC50 (cells [18]): > 67.5 µM (inactive) | IC50 [19]: > 67.5 µM (inactive)

C[C@H]1CN([C@@H](C)CO)S(=O)(=O)c2ccc(C#Cc3ccccn3)cc2O[C@@H]1CN(C)Cc1ccccc1
AC50 (HeLa): > 52 µM (inactive) | AC50 (HEK293): 24.2 µM (active) | AC50 [20]: 24.2 µM (active)

CC(C)NC(=O)Nc1ccc2c(c1)C(=O)N([C@@H](C)CO)C[C@@H](C)[C@@H](CN(C)S(=O)(=O)c1ccc(Cl)cc1)O2
AC50 [21]: 69.6 µM (active)

CN(C)C(=O)c1ccc(-c2ccc([C@H]3[C@H](CO)N4CCCCN(C(=O)C5CCC5)C[C@@H]34)cc2)cc1
AC50 [22]: 0.072 µM (active)

CCC(C)Oc1ccc(CC(=O)NO)cc1 (centres undefined)
IC50 [23]: 16.3 µM (inactive)

Cc1ccccc1NCC(=O)N/N=C\c1ccc([N+](=O)[O-])s1
IC50 (cells [24]): 5.71 µM (active) | IC50 [25]: 46.7 µM (active) | IC50 [26]: 90.4 µM (inactive) | CC50 [27]: 18.8 µM (active) | CC50 [28]: 13.8 µM (active) | EC50 [29]: 0.506 µM (active) | EC50 [30]: > 60 µM (not active) | CC50 [31]: 16 µM (active)
